Data from ChEMBL document CHEMBL1151757, “Synthesis, radiosynthesis, and biological evaluation of fluorine-18-labeled 2beta-carbo(fluoroalkoxy)-3beta-(3'-((Z)-2-haloethenyl)phenyl)nortropanes: candidate radioligands for in vivo imaging of the serotonin transporter with positron emission tomography” (J Med Chem, 2008).

Key:
[1] = Drug uptake in anesthetized cynomolgus monkey brain frontal lobe after 27.5 mins postinjection; assay type: ADME, organism-based, Macaca fascicularis; conditions: in vivo
Caudate [2] = assay: Drug uptake in anesthetized cynomolgus monkey brain caudate after 9.5 mins postinjection; assay type: ADME, organism-based, Macaca fascicularis, Caudate nucleus; conditions: in vivo
Midbrain [3] = assay: Drug uptake in anesthetized cynomolgus monkey brain midbrain after 85 mins postinjection; assay type: ADME, organism-based, Macaca fascicularis; design: unit not given here; conditions: in vivo
[4] = Drug uptake in anesthetized cynomolgus monkey brain cerebellum after 15.5 mins postinjection; assay type: ADME, organism-based, Macaca fascicularis; conditions: in vivo
Medulla [5] = assay: Drug uptake in anesthetized cynomolgus monkey brain medulla after 145 mins postinjection; assay type: ADME, organism-based, Macaca fascicularis; conditions: in vivo
Medulla [6] = assay: Drug uptake in anesthetized cynomolgus monkey brain medulla after 205 mins postinjection; assay type: ADME, organism-based, Macaca fascicularis; conditions: in vivo
Thalamus [7] = assay: Drug uptake in anesthetized cynomolgus monkey brain thalamus after 65 mins postinjection; assay type: ADME, organism-based, Macaca fascicularis; design: unit not given here; conditions: in vivo
[8] = Ratio of drug uptake in caudate to cerebellum in anesthetized cynomolgus monkey after 155 mins postinjection; assay type: ADME, organism-based, Macaca fascicularis; conditions: in vivo
Midbrain [9] = assay: Drug uptake in anesthetized cynomolgus monkey brain midbrain after 95 mins postinjection; assay type: ADME, organism-based, Macaca fascicularis; design: unit not given here; conditions: in vivo
[10] = Ratio of drug uptake in pons to cerebellum in anesthetized cynomolgus monkey after 105 mins postinjection; assay type: ADME, organism-based, Macaca fascicularis; conditions: in vivo, 1.75 h
[11] = Drug uptake in anesthetized cynomolgus monkey brain cerebellum after 22.5 mins postinjection; assay type: ADME, organism-based, Macaca fascicularis; conditions: in vivo, 0.375 h
Pons [12] = assay: Drug uptake in anesthetized cynomolgus monkey brain pons after 27.5 mins postinjection; assay type: ADME, organism-based, Macaca fascicularis; conditions: in vivo
[13] = Drug uptake in anesthetized cynomolgus monkey brain frontal lobe after 4.5 mins postinjection; assay type: ADME, organism-based, Macaca fascicularis; conditions: in vivo, 0.075 h
[14] = Drug uptake in anesthetized cynomolgus monkey brain occipital lobe after 105 mins postinjection; assay type: ADME, organism-based, Macaca fascicularis; conditions: in vivo, 1.75 h
Thalamus [15] = assay: Drug uptake in anesthetized cynomolgus monkey brain thalamus after 12.5 mins postinjection; assay type: ADME, organism-based, Macaca fascicularis; design: unit not given here; conditions: in vivo
[16] = Drug uptake in anesthetized cynomolgus monkey brain frontal lobe after 35 mins postinjection; assay type: ADME, organism-based, Macaca fascicularis; conditions: in vivo
Pons [17] = assay: Drug uptake in anesthetized cynomolgus monkey brain pons after 175 mins postinjection; assay type: ADME, organism-based, Macaca fascicularis; conditions: in vivo
Thalamus [18] = assay: Drug uptake in anesthetized cynomolgus monkey brain thalamus after 195 mins postinjection; assay type: ADME, organism-based, Macaca fascicularis; conditions: in vivo, 3.25 h
Putamen [19] = assay: Drug uptake in anesthetized cynomolgus monkey brain putamen after 175 mins postinjection; assay type: ADME, organism-based, Macaca fascicularis; conditions: in vivo
Pons [20] = assay: Drug uptake in anesthetized cynomolgus monkey brain pons after 105 mins postinjection; assay type: ADME, organism-based, Macaca fascicularis; conditions: in vivo, 1.75 h
[21] = Drug uptake in anesthetized cynomolgus monkey brain frontal lobe after 22.5 mins postinjection; assay type: ADME, organism-based, Macaca fascicularis; conditions: in vivo, 0.375 h
[22] = Ratio of drug uptake in caudate to cerebellum in anesthetized cynomolgus monkey after 55 mins postinjection; assay type: ADME, organism-based, Macaca fascicularis; conditions: in vivo
Thalamus [23] = assay: Drug uptake in anesthetized cynomolgus monkey brain thalamus after 75 mins postinjection; assay type: ADME, organism-based, Macaca fascicularis; design: unit not given here; conditions: in vivo, 1.25 h
[24] = Ratio of drug uptake in frontal lobe to cerebellum in anesthetized cynomolgus monkey after 35 mins postinjection; assay type: ADME, organism-based, Macaca fascicularis; conditions: in vivo
[25] = Ratio of drug uptake in midbrain to cerebellum in anesthetized cynomolgus monkey after 185 mins postinjection; assay type: ADME, organism-based, Macaca fascicularis; conditions: in vivo
[26] = Ratio of drug uptake in occipital lobe to cerebellum in anesthetized cynomolgus monkey after 0.5 mins postinjection; assay type: ADME, organism-based, Macaca fascicularis; conditions: in vivo
[27] = Ratio of drug uptake in medulla to cerebellum in anesthetized cynomolgus monkey after 65 mins postinjection; assay type: ADME, organism-based, Macaca fascicularis; conditions: in vivo
Caudate [28] = assay: Drug uptake in anesthetized cynomolgus monkey brain caudate after 27.5 mins postinjection; assay type: ADME, organism-based, Macaca fascicularis, Caudate nucleus; conditions: in vivo
[29] = Drug uptake in anesthetized cynomolgus monkey brain cerebellum after 4.5 mins postinjection; assay type: ADME, organism-based, Macaca fascicularis; conditions: in vivo, 0.075 h
[30] = Ratio of drug uptake in pons to cerebellum in anesthetized cynomolgus monkey after 85 mins postinjection; assay type: ADME, organism-based, Macaca fascicularis; conditions: in vivo
Pons [31] = assay: Drug uptake in anesthetized cynomolgus monkey brain pons after 205 mins postinjection; assay type: ADME, organism-based, Macaca fascicularis; conditions: in vivo
Midbrain [32] = assay: Drug uptake in anesthetized cynomolgus monkey brain midbrain after 0.5 mins postinjection; assay type: ADME, organism-based, Macaca fascicularis; design: unit not given here; conditions: in vivo
Medulla [33] = assay: Drug uptake in anesthetized cynomolgus monkey brain medulla after 155 mins postinjection; assay type: ADME, organism-based, Macaca fascicularis; conditions: in vivo
[34] = Drug uptake in anesthetized cynomolgus monkey brain frontal lobe after 215 mins postinjection; assay type: ADME, organism-based, Macaca fascicularis; conditions: in vivo
[35] = Ratio of drug uptake in thalamus to cerebellum in anesthetized cynomolgus monkey after 135 mins postinjection; assay type: ADME, organism-based, Macaca fascicularis; conditions: in vivo, 2.25 h
Caudate [36] = assay: Drug uptake in anesthetized cynomolgus monkey brain caudate after 6.5 mins postinjection; assay type: ADME, organism-based, Macaca fascicularis, Caudate nucleus; conditions: in vivo
Thalamus [37] = assay: Drug uptake in anesthetized cynomolgus monkey brain thalamus after 18.5 mins postinjection; assay type: ADME, organism-based, Macaca fascicularis; design: unit not given here; conditions: in vivo
[38] = Ratio of drug uptake in medulla to cerebellum in anesthetized cynomolgus monkey after 135 mins postinjection; assay type: ADME, organism-based, Macaca fascicularis; conditions: in vivo, 2.25 h
Putamen [39] = assay: Drug uptake in anesthetized cynomolgus monkey brain putamen after 105 mins postinjection; assay type: ADME, organism-based, Macaca fascicularis; design: unit not given here; conditions: in vivo, 1.75 h
Caudate [40] = assay: Drug uptake in anesthetized cynomolgus monkey brain caudate after 155 mins postinjection; assay type: ADME, organism-based, Macaca fascicularis, Caudate nucleus; conditions: in vivo
Medulla [41] = assay: Drug uptake in anesthetized cynomolgus monkey brain medulla after 4.5 mins postinjection; assay type: ADME, organism-based, Macaca fascicularis; conditions: in vivo, 0.075 h
[42] = Octanol-water partition coefficient, log P at pH 7.4 by shake-flask method; assay type: physicochemical
Midbrain [43] = assay: Drug uptake in anesthetized cynomolgus monkey brain midbrain after 12.5 mins postinjection; assay type: ADME, organism-based, Macaca fascicularis; design: unit not given here; conditions: in vivo
[44] = Drug uptake in anesthetized cynomolgus monkey brain cerebellum after 27.5 mins postinjection; assay type: ADME, organism-based, Macaca fascicularis; conditions: in vivo
[45] = Ratio of drug uptake in putamen to cerebellum in anesthetized cynomolgus monkey after 155 mins postinjection; assay type: ADME, organism-based, Macaca fascicularis; conditions: in vivo
[46] = Drug uptake in anesthetized cynomolgus monkey brain frontal lobe after 225 mins postinjection; assay type: ADME, organism-based, Macaca fascicularis; conditions: in vivo, 3.75 h
[47] = Drug uptake in anesthetized cynomolgus monkey brain frontal lobe after 15.5 mins postinjection; assay type: ADME, organism-based, Macaca fascicularis; conditions: in vivo
Medulla [48] = assay: Drug uptake in anesthetized cynomolgus monkey brain medulla after 45 mins postinjection; assay type: ADME, organism-based, Macaca fascicularis; conditions: in vivo, 0.75 h
Midbrain [49] = assay: Drug uptake in anesthetized cynomolgus monkey brain midbrain after 35 mins postinjection; assay type: ADME, organism-based, Macaca fascicularis; design: unit not given here; conditions: in vivo
Caudate [50] = assay: Drug uptake in anesthetized cynomolgus monkey brain caudate after 105 mins postinjection; assay type: ADME, organism-based, Macaca fascicularis, Caudate nucleus; conditions: in vivo, 1.75 h
[51] = Drug uptake in anesthetized cynomolgus monkey brain occipital lobe after 9.5 mins postinjection; assay type: ADME, organism-based, Macaca fascicularis; conditions: in vivo
Medulla [52] = assay: Drug uptake in anesthetized cynomolgus monkey brain medulla after 195 mins postinjection; assay type: ADME, organism-based, Macaca fascicularis; conditions: in vivo, 3.25 h
[53] = Drug uptake in anesthetized cynomolgus monkey brain occipital lobe after 125 mins postinjection; assay type: ADME, organism-based, Macaca fascicularis; conditions: in vivo
Putamen [54] = assay: Drug uptake in anesthetized cynomolgus monkey brain putamen after 15.5 mins postinjection; assay type: ADME, organism-based, Macaca fascicularis; design: unit not given here; conditions: in vivo
[55] = Drug uptake in anesthetized cynomolgus monkey brain frontal lobe after 6.5 mins postinjection; assay type: ADME, organism-based, Macaca fascicularis; conditions: in vivo
Putamen [56] = assay: Drug uptake in anesthetized cynomolgus monkey brain putamen after 195 mins postinjection; assay type: ADME, organism-based, Macaca fascicularis; conditions: in vivo, 3.25 h
[57] = Ratio of drug uptake in caudate to cerebellum in anesthetized cynomolgus monkey after 225 mins postinjection; assay type: ADME, organism-based, Macaca fascicularis; conditions: in vivo, 3.75 h
Thalamus [58] = assay: Drug uptake in anesthetized cynomolgus monkey brain thalamus after 0.5 mins postinjection; assay type: ADME, organism-based, Macaca fascicularis; conditions: in vivo
Pons [59] = assay: Drug uptake in anesthetized cynomolgus monkey brain pons after 0.5 mins postinjection; assay type: ADME, organism-based, Macaca fascicularis; conditions: in vivo
[60] = Ratio of drug uptake in occipital lobe to cerebellum in anesthetized cynomolgus monkey after 125 mins postinjection; assay type: ADME, organism-based, Macaca fascicularis; conditions: in vivo
[61] = Ratio of drug uptake in pons to cerebellum in anesthetized cynomolgus monkey after 215 mins postinjection; assay type: ADME, organism-based, Macaca fascicularis; conditions: in vivo
Putamen [62] = assay: Drug uptake in anesthetized cynomolgus monkey brain putamen after 18.5 mins postinjection; assay type: ADME, organism-based, Macaca fascicularis; design: unit not given here; conditions: in vivo
[63] = Drug uptake in anesthetized cynomolgus monkey brain frontal lobe after 85 mins postinjection; assay type: ADME, organism-based, Macaca fascicularis; conditions: in vivo
Medulla [64] = assay: Drug uptake in anesthetized cynomolgus monkey brain medulla after 15.5 mins postinjection; assay type: ADME, organism-based, Macaca fascicularis; conditions: in vivo
[65] = Drug uptake in anesthetized cynomolgus monkey brain frontal lobe after 9.5 mins postinjection; assay type: ADME, organism-based, Macaca fascicularis; conditions: in vivo
Thalamus [66] = assay: Drug uptake in anesthetized cynomolgus monkey brain thalamus after 35 mins postinjection; assay type: ADME, organism-based, Macaca fascicularis; design: unit not given here; conditions: in vivo
Caudate [67] = assay: Drug uptake in anesthetized cynomolgus monkey brain caudate after 135 mins postinjection; assay type: ADME, organism-based, Macaca fascicularis, Caudate nucleus; conditions: in vivo, 2.25 h
Putamen [68] = assay: Drug uptake in anesthetized cynomolgus monkey brain putamen after 95 mins postinjection; assay type: ADME, organism-based, Macaca fascicularis; design: unit not given here; conditions: in vivo

O=C(OCC[18F])C1C2CCC(CC1c1cccc(/C=C\Br)c1)N2 (stereo not drawn)
Drug uptake [1]: 2.69 | Drug uptake (Caudate [2]): 2.36 | Drug uptake (Midbrain [3]): 4.9 | Drug uptake [4]: 3.57 | Drug uptake (Medulla [5]): 3.92 | Drug uptake (Medulla [6]): 3.14 | Drug uptake (Thalamus [7]): 4.51 | Ratio [8]: 1.6 | Drug uptake (Midbrain [9]): 4.91 | Ratio [10]: 1.5 | Drug uptake [11]: 3.81 | Drug uptake (Pons [12]): 4.1 | Drug uptake [13]: 1.02 | Drug uptake [14]: 3.15 | Drug uptake (Thalamus [15]): 3 | Drug uptake [16]: 2.78 | Drug uptake (Pons [17]): 3.72 | Drug uptake (Thalamus [18]): 3.18 | Drug uptake (Putamen [19]): 3.76 | Drug uptake (Pons [20]): 4.34 | Drug uptake [21]: 2.54 | Ratio [22]: 1.1 | Drug uptake (Thalamus [23]): 4.29 | Ratio [24]: 0.7 | Ratio [25]: 2.2 | Ratio [26]: 1.6 | Ratio [27]: 1.4 | Drug uptake (Caudate [28]): 3.3 | Drug uptake [29]: 1.76 | Ratio [30]: 1.4 | Drug uptake (Pons [31]): 3.51 | Drug uptake (Midbrain [32]): 0.01 | Drug uptake (Medulla [33]): 3.83 | Drug uptake [34]: 1.97 | Ratio [35]: 1.7 | Drug uptake (Caudate [36]): 1.92 | Drug uptake (Thalamus [37]): 3.32 | Ratio [38]: 1.7 | Drug uptake (Putamen [39]): 4.82 | Drug uptake (Caudate [40]): 3.47 | Drug uptake (Medulla [41]): 2.07 | logD [42]: 1.4 | Drug uptake (Midbrain [43]): 3.83 | Drug uptake [44]: 3.8 | Ratio [45]: 1.8 | Drug uptake [46]: 1.88 | Drug uptake [47]: 2.38 | Drug uptake (Medulla [48]): 4.87 | Drug uptake (Midbrain [49]): 4.68 | Drug uptake (Caudate [50]): 4.01 | Drug uptake [51]: 2.66 | Drug uptake (Medulla [52]): 3.34 | Drug uptake [53]: 3.07 | Drug uptake (Putamen [54]): 4.05 | Drug uptake [55]: 1.75 | Drug uptake (Putamen [56]): 3.53 | Ratio [57]: 1.8 | Drug uptake (Thalamus [58]): 0 | Drug uptake (Pons [59]): 0.01 | Ratio [60]: 1.1 | Ratio [61]: 1.8 | Drug uptake (Putamen [62]): 4.37 | Drug uptake [63]: 2.88 | Drug uptake (Medulla [64]): 4.15 | Drug uptake [65]: 2.06 | Drug uptake (Thalamus [66]): 3.89 | Drug uptake (Caudate [67]): 3.74 | Drug uptake (Putamen [68]): 4.83
